Here are results for one compound from patent US20210317102A1, “INHIBITORS OF INTEGRATED STRESS RESPONSE PATHWAY” (Praxis Biotech LLC, priority 2019, published 2021).

In one test the test system is CHO cells. Nature of the test: Protein secretion in a CHO cell-based assay. The following applies: 1 μM compound 10, media without FBS, 24 h, vs vehicle. The protocol:
CHO cells were maintained at 37° C. and 5% CO2 in DMEM supplemented with 10% fetal bovine serum (FBS), 2 mM L-glutamine, 100 U/ml penicillin, and 100 μg/ml streptomycin. After reaching 80% of confluence, cells were detached and seeded on 6-well plates in complete media, allowed to recover for 48 h. Cells were then washed three times with PBS and treated with compound 10 at […] in 1 mL of media without FBS for 24 h. Treatment with 0.1% DMSO was used as control (vehicle). After 24 h treatment, supernatant (SN) which contains secreted proteins was extracted and protease and phosphatase inhibitors (Roche) were added to each sample. SN were centrifuged at 2,000 g for 10 min to discard any cellular debris and 900 μL SN were transferred to empty microtubes with 400 μL methanol by mixing well. 200 μL of chloroform was added to the mix and then samples were centrifuged at 14,000 g for 2 minutes. Top aqueous layer was discarded by pipetting off and 400 μL methanol is added to each sample by mixing well. Samples were then centrifuged at 17,000 g for 8 minutes and methanol was discarded by pipetting off without disturbing the protein pellet. […] Secreted proteins were analyzed by SDS-PAGE and Coomassie staining. […] Percentage was calculated as the percent relative to protein secretion levels from CHO cells treated with vehicle which correspond to 100%.

The subject of test [1] is Chinese hamster ovary (CHO) cells. Nature of the test: Protein synthesis assay (puromycin incorporation, western blot). The settings on record: Cricetulus griseus; unstressed CHO cells (without Tg), 1 μM test compound, 2 hours; media alone = 100%; read-out: % Protein synthesis relative to untreated (1 μM test compound). It is filed as cell-based. A digest of the protocol: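 CHO cells treated 2 h with 1 μM compound alone, or with 300 nM thapsigargin plus 1 μM compound, then pulsed 30 min with 10 μg/ml puromycin. Puromycin incorporation read by anti-puromycin western blot with densitometry. Unstressed values normalized to media alone (100%); stressed recovery normalized to media alone (100%) and Tg alone (0%).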

For the compound `O=C(COc1ccc(Cl)c(F)c1)N[C@H]1CC[C@H](CNC(=O)c2ccc3cc(Cl)ccc3n2)CC1` [Compound 10, trans-6-chloro-N-((4-(2-(4-chloro-3-fluorophenoxy)acetamido)cyclohexyl)methyl)quinoline-2-carboxamide], the “Secretion of proteins in CHO cells” value with CHO cells was “increased secretion of proteins”. In addition, the activity at 1 µM in test [1] worked out at 229%.
